This note sets out measurements from US11266170B2, “Sweetener and flavor compositions, methods of making and methods of use thereof” (EPC Natural Products Co., Ltd., priority 2018, dated 2022).

In one data set the test system is 3 persons. Description: Sensory analysis of odor/smell, color and taste of reacted samples (Examples 55-62). It counts as in vivo. The procedure:
The reaction partners were dissolved in water and then warmed glycerin (60° C.) was added. […]
The taste test was performed as in Example 38.
All samples were assessed at 22° C. after the Maillard reaction was stopped by placing the sealed vials in an ice bath. After 20 minutes in the ice bath the sealed vials were put in a water bath set to 22° C.
The odor/smell was assessed independently by 3 persons; the final description was agreed after discussion. […] The taste was assessed independently by 3 persons either in the original samples or after appropriate dilution to achieve relevant concentrations of sugars and steviol-glycosides (i.e. 5-9% SE); the final description was agreed after discussion.

Data set [1] can be described thus: Kinetics of reaction of Phe with Reb-A, Gluc, Xyl, Suc in dependence of pH-conditions, HPLC/MS (Example 55). The format is physicochemical. Here is the method:
Quantitative evaluation was performed using external standardization.
Kinetics of Reaction in dependence of pH-conditions

Where [2] appears, read: Example 57, after reaction, 10 ml KH2PO4, pH 7.8, 2.5 h, 120 °C.
[3] abbreviates: reaction of Phe and Gluc, pH = 5.5.
Where [4] appears, read: reaction of Phe and Gluc, pH = 7.0.
Where [5] appears, read: reaction of Phe and Gluc, pH = 8.5.
The mark [6] stands for this setting: reaction of Phe and Suc, pH = 5.5.
The mark [7] stands for this setting: reaction of Phe and Suc, pH = 7.0.
Setting [8] is: reaction of Phe and Suc, pH = 8.5.
[9] abbreviates: reaction of Phe and Reb-A, pH = 5.5, Reb-B from degraded Reb-A, MRIs from degraded Phe.
Where [10] appears, read: reaction of Phe and Reb-A, pH = 7.0, Reb-B from degraded Reb-A, MRIs from degraded Phe.
The mark [11] stands for this setting: reaction of Phe and Reb-A, pH = 8.5, Reb-B from degraded Reb-A, MRIs from degraded Phe.
The mark [12] stands for this setting: negative controls (no carbohydrate source), 10 ml glycerin/water 9:1, 100 °C, 40 minutes.
Setting [13] is: Example 57, before reaction, 10 ml KH2PO4, pH 7.8.

`NC(Cc1ccccc1)C(=O)O` (single isomer, unassigned) [Phe]: the Smell result with 3 persons (setting [2]) is recorded as “Caramel, burnt”. Besides, the Taste entry in the data set with 3 persons (setting [2]) is recorded as “sweet”. Further, the “% degradation” value in data set [1] (setting [3]) is recorded as 2.26%; in data set [1] (setting [4]), 2.18%; in data set [1] (setting [5]), 4.24%; in data set [1] (reaction of Phe and Reb-A, pH = 5.5) it was 1.97%; in data set [1] (reaction of Phe and Reb-A, pH = 7.0), 9.07%; in data set [1] (reaction of Phe and Reb-A, pH = 8.5), 12.8%. Further, the “% degradation” value is given as 5.50% in data set [1] (setting [6]); 5.19% in data set [1] (setting [7]); 5.36% in data set [1] (setting [8]); 4.24% in data set [1] (reaction of Phe and Xyl, pH = 5.5); 4.80% in data set [1] (reaction of Phe and Xyl, pH = 7.0); 9.89% in data set [1] (reaction of Phe and Xyl, pH = 8.5).
As to rebaudioside B [RB], the “% formation” value in data set [1] (setting [9]) came to 23.1%; in data set [1] (setting [10]), 22.7%; in data set [1] (setting [11]) it was 19.1%.
Take `OC[C@H]1O[C@@](CO)(O[C@H]2O[C@H](CO)[C@@H](O)[C@H](O)[C@H]2O)[C@@H](O)[C@@H]1O` [Suc]: the “% degradation” value in data set [1] (setting [6]) was found to be 3.67%; in data set [1] (setting [7]), 5.69%; in data set [1] (setting [8]) it was 9.81%.
`C=C1CC23CC[C@H]4[C@@](C)(CCC[C@@]4(C)C(=O)OC4O[C@H](C(=O)N[C@H](Cc5ccccc5)C(=O)O)[C@@H](O)[C@H](O)[C@H]4O)[C@@H]2CC(O[C@@H]2O[C@H](CO)[C@@H](O)C(O[C@@H]4O[C@H](CO)[C@@H](O)[C@H](O)[C@H]4O)[C@H]2O[C@@H]2O[C@H](CO)[C@@H](O)[C@H](O)[C@H]2O)C1C3` (stereo partly drawn) [MRI (Phe-Reb-A)]: the “% formation” value in data set [1] (setting [9]) is 10.4%; in data set [1] (setting [10]), 11.3%; in data set [1] (setting [11]), 14.7%.
For `O=C(O)[C@H](Cc1ccccc1)NCC(=O)[C@@H](O)[C@H](O)[C@H](O)CO` [MRI (Phe-Glu)], the “% formation” value in data set [1] (reaction of Phe and Suc, pH = 5.5, from degraded Phe) is on record as below 0.10%; in data set [1] (reaction of Phe and Suc, pH = 7.0, from degraded Phe) it was 0.54%; in data set [1] (reaction of Phe and Suc, pH = 8.5, from degraded Phe), 0.84%.
Take `C[C@H](N)C(=O)O` [8.91 mg Ala]: in the data set with 3 persons (setting [12]), the Smell result was “Neutral, slightly Agar” and the Taste result was “Slightly sweet”.
Take `CC[C@H](C)[C@H](N)C(=O)O` [13.11 mg Ile]: in the data set with 3 persons (setting [12]), the Smell entry was “Coffee” and the Taste entry is on record as “Slightly sweet”.
As to `N[C@@H](Cc1ccccc1)C(=O)O` [16.5 mg Phe], the Smell result with 3 persons (setting [13]) is “neutral”; in the data set on 3 persons (Example 58, after reaction, 10 ml KH2PO4, pH 7.8, 2.5 h, 120 °C), “Caramel, burnt”; in the data set on 3 persons (Example 58, before reaction, 10 ml KH2PO4, pH 7.8) it was “Neutral”; in the data set on 3 persons (setting [12]), “Bloomy, caramel”. The Taste entry with 3 persons (setting [13]) is recorded as “No taste”; in the data set with 3 persons (Example 58, after reaction, after dilution 1:20), “Sweet”; with 3 persons (Example 58, before reaction, after dilution 1:20), “No taste”; in the data set on 3 persons (setting [12]), “Slightly sweet”.
`N[C@@H](Cc1c[nH]c2ccccc12)C(=O)O` [20.42 mg Try]: in the data set with 3 persons (setting [12]), the Smell entry is reported as “Unpleasant (fecal)” and the Taste entry was “Slightly sweet”.
In the case of `OC[C@H]1OC(O)[C@H](O)[C@@H](O)[C@@H]1O` (stereo partly drawn) [Glu], in the data set with 3 persons (setting [2]), the Smell result is recorded as “Burnt sugar”. Further, the Taste entry with 3 persons (setting [2]) is on record as “Sweet/bitter”. The results for the “% degradation” value in data set [1] (setting [3]), in data set [1] (setting [4]) and in data set [1] (setting [5]) were 3.65%, 4.6% and 7.62%, respectively.
